Test results reported in ChEMBL document CHEMBL3785078 (Eur J Clin Pharmacol, 1981).

Key:
[1] = Terminal half life in iv dosed patient (7 patients) with renal insufficiency; details: human, in vivo
[2] = Drug excretion in human assessed as unchanged parent compound level; details: in vivo
[3] = Apparent volume of distribution at central compartment in iv dosed patient (7 patients) with renal insufficiency; details: human, in vivo
[4] = Apparent volume of distribution in beta-phase in iv dosed patient (7 patients) with renal insufficiency; details: human, in vivo
[5] = Apparent first order elimination rate constant from the central compartment in iv dosed patient with normal renal function; details: human, in vivo
[6] = Apparent volume of distribution at steady state in iv dosed patient (7 patients) with renal insufficiency; details: human, in vivo
[7] = Apparent first order elimination rate constant from the central compartment in iv dosed patient (7 patients) with renal insufficiency; details: human, in vivo
[8] = Apparent volume of distribution at steady state in iv dosed patient with normal renal function; details: human, in vivo
[9] = Terminal half life in iv dosed patient with normal renal function; details: human, in vivo
[10] = Total body clearance in iv dosed patient with normal renal function; details: human, in vivo
[11] = Disposition rate constant in patient (7 patients) with renal insufficiency at 350 mg/kg, po; details: human, in vivo
[12] = Disposition rate constant in iv dosed patient (7 patients) with renal insufficiency; details: human, in vivo
[13] = Apparent volume of distribution in beta-phase iv dosed patient with normal renal function; details: human, in vivo
clinical [14] = details: human, in vivo, po, 350 mg/kg
Description: Terminal half life in patient (7 patients) with renal insufficiency at 350 mg/kg, po

[15] = Half life in patient (5 patients) with severe renal insufficiency assessed as unchanged compound level using 14C labeled compound measured over 72 hrs; details: human, in vivo
clinical [16] = details: human, in vivo, po, 50 mg/kg
Description: Terminal half life in patient (7 patients) with renal insufficiency at 50 mg/kg, po

[17] = Half life in patient with normal renal function assessed as unchanged compound level using 14C labeled compound measured over 72 hrs; details: human, in vivo
[18] = Total body clearance in iv dosed patient (7 patients) with renal insufficiency; details: human, in vivo
[19] = Disposition rate constant in patient (7 patients) with renal insufficiency at 50 mg/kg, po; details: human, in vivo

O=P1(N(CCCl)CCCl)NCCCO1 (centres undefined) [CYCLOPHOSPHAMIDE ANHYDROUS]
half-life [1]: 10.2 h | dose excreted [2]: < 15% | Vd [3]: 0.41 L/kg | Vd [4]: 0.72 L/kg | k el [5]: 4.86e-05 s⁻¹ | Vd [6]: 0.58 L/kg | k el [7]: 3.36e-05 s⁻¹ | Vd [8]: 0.73 L/kg | half-life [9]: 8.21 h | clearance [10]: 0.977 mL/min/kg | k el [11]: 1.92e-05 s⁻¹ | k el [12]: 1.94e-05 s⁻¹ | Vd [13]: 0.68 L/kg | half-life (clinical [14]): 5.21 h | half-life at 72 h [15]: 14 h | half-life (clinical [16]): 13.7 h | half-life at 72 h [17]: 6.9 h | clearance [18]: 0.813 mL/min/kg | k el [19]: 1.42e-05 s⁻¹
